Test results reported in patent US20170266186A1, “USE OF INHIBITORS OF BRUTON'S TYROSINE KINASE (BTK)” (Pharmacyclics LLC, priority 2011, published 2017).

Columns and labels:
[1] = system: Mino cells; assay: actin polymerization in Mino cells (phalloidin); assay type: cell-based, human; settings: 10 and 100 nM (p<0.001)
[2] = system: plasma chemokines and cytokines; assay: plasma chemokine and cytokine concentrations of ibrutinib treated MCL patients
[3] = system: LY19; assay: growth inhibition by PCI-32765, LY19; assay type: cell-based; settings: Homo sapiens; LY19, DLBCL, GCB (CARD11)
[4] = system: Jekol and HBL1 cells; assay: adhesion assay, anti-IgM stimulated; settings: Homo sapiens, HBL1, read-out: inhibition of anti-IgM stimulated adhesion onto fibronectin or VCAM1
[5] = system: CD19+CD5+ cells of MCL patients; assay: flow cytometry phenotyping of PBMCs of MCL patients before (D1) and after one week (D8) of ibrutinib; assay type: in vivo, human
Procedure: Blood was drawn from MCL patients enrolled in PCYC-04753 or PCYC-1104 studies in the US in accordance with GCP guidelines provided by ICH and principles of the Declaration of Helsinki with informed consent and in compliance with the protocols approved by the relevant Institutional Review Board(s). The whole blood samples were drawn into sodium heparin CPT tubes (BD), mixed for 5 min then spun at 1500 rcf for 20 min at the collection sites. The samples were shipped overnight to Pharmacyclics with 36 hrs. In a laminar flow hood, the PBMCs were removed from the top layer of the tubes, washed with PBS, and frozen in 90% FBS+10% DMSO (Sigma, St Louis, Mo.) in liquid nitrogen until use.
Frozen PBMCs were thawed in a 37° C. water bath, resuspended in RPMI+10% FBS, and recovered in a 37° C., 5% CO2 incubator in 5 ml polypropylene tubes (BD-Falcon) for 2 hours before phenotyping analysis. The PBMCs were washed with PBS+2% FBS, pelleted and resuspended in PBS+2% FBS containing phenotyping surface antibodies. All staining cocktails were run in duplicate tubes. The cells were stained for 30 minutes, washed with PBS, pelleted at 1300 rpm for 5 min, then fixed in PBS+1.6% paraformaldehyde (Electron Microscopy Services, Hatfield, Pa.).
BD FACS Canto II (BD, San Jose, Calif.) was used for all flow cytometry collection. The instrument was maintained according to manufacturer's recommendations. CS&T beads (BD) are used daily for baseline and reproducibility measurements according to manufacturer's instructions. Phosphoflow assays were stained and performed as described. The above antibodies were used with BD CompBead Plus to establish compensation settings and antibody staining consistency. 10,000 CD19^+ cells were collected from each staining sample. The data was analyzed and quantified using FlowJo7.6 (Tree Star, Ashland, Oreg.).

[6] = system: LY3; assay: growth inhibition by PCI-32765, LY3; assay type: cell-based; settings: Homo sapiens; LY3, DLBCL, ABC (CARD11)
[7] = system: B cell lymphoma derived cell lines; assay: growth inhibition in a subset of B cell lymphoma derived cell lines; assay type: cell-based; settings: Homo sapiens, read-out: GI50 values, range
[8] = system: Mino; assay: growth inhibition by PCI-32765, Mino; assay type: cell-based; settings: Homo sapiens, Mantle cell
[9] = system: Mino cells; assay: migration assay, CXCL13 stimulated; settings: dose-dependently from 1 nM to 1 μM
[10] = system: Jekol cells; assay: adhesion assay, chemokine-mediated, Jekol; settings: Homo sapiens, read-out: inhibition of adhesion to VCAM1 or fibronectin following CXCL12 or CXCL13 activations
[11] = system: Mino cells; assay: co-culture assay: migration of Mino cells beneath M2-10B4 stromal cells (pseudoemperipoliesis); assay type: cell-based, human; settings: significant at 100 nM (p<0.01) and 1000 nM (p<0.001)

## C=CC(=O)N1CCC[C@@H](n2nc(-c3ccc(Oc4ccccc4)cc3)c3c(N)ncnc32)C1 [PCI-32765, (R)-1-(3-(4-amino-3-(4-phenoxyphenyl)-1H-pyrazolo[3,4-d]pyrimidin-1-yl)piperidin-1-yl)prop-2-en-1-one]
[1]
  CXCL12-increased cortical actin of Mino cells: dose-dependently and significantly inhibited
[2]; after one week of treatment
  reduction of plasma chemokines such as MDC, MIP-1β, and CXCL13: 40-60%
[2]; by the end of the first cycle of treatment
  reduction of IL-10 and TNF-α: 50%
[2]; following one week of treatment
  reduction of chemokines MDC, MIP-1β, CXCL13 and CXCL17, on average: more than 50%
[3]
  GI50: > 10 µM
[4]
  inhibition at 0.1 µM: 50 to 70%
[5]; after one week of ibrutinib treatment, p<0.05
  absolute count and percentage of CD19+CD5+ cells in the lymphocyte population: significantly increased
[5]; after treatment, p<0.05
  intracellular Ki67 expression: significantly reduced
[5]; differences not statistically significant
  pErk expression in CD20+CD5+ cells: reduced
[5]; following one week of drug treatment, p<0.05
  surface expression of CXCR4 in the CD19+CD5+ population: significantly reduced
[5]; following treatment, p<0.01
  CD38+ cells among CD19+CD5+ cells: significantly decreased
[5]; illustrative patient, after one week of treatment, before 9.29%
  CD19+CD3− population of gated lymphocytes: 63%
[5]; illustrative patient, after one week of treatment, before 84.4%
  CD19+CD5+ population: 98.8%
[6]
  GI50: > 10 µM
[7]
  GI50: 0.1 to 5.5 µM
[8]
  GI50: 0.15 µM
[9]
  CXCL13 stimulated migration of Mino cells: significantly inhibited
[10]
  inhibition at 0.1 µM: 20 to 30%
[11]
  migration of Mino cells beneath the stromal cells: dose-dependently inhibited
